Data taken from paper PMC12796986 (Journal of medicinal chemistry, 2025).

Molecular target: mpox resolvase (Mpr) (Monkeypox virus, UniProt A0A7H0DNC1)
Test: biochemical
Format: biochemical
Conditions: not given

mpox resolvase (Mpr), sequence (A0A7H0DNC1 whole entry, looked up): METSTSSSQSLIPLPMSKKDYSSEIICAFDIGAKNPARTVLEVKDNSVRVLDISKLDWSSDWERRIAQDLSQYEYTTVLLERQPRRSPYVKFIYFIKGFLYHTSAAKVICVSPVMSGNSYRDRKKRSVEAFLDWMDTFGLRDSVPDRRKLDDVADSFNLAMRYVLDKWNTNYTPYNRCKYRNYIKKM

Row | Molecule | IC50 [nM] | fluorescence quenching in the FRET assay | Mpr inhibition
1 | COc1ccc(OC)c(-c2cnc3c(c2)c(O)cc(=O)n3O)c1 [4c-9, 6-(2,5-dimethoxyphenyl)-1,4-dihydroxy-1,8-naphthyridin-2(1H)-one] | 1600 ± 100 | – | –
2 | O=c1c(-c2ccccc2)c(O)c2cc(-c3ccc(C(F)(F)F)cc3)cnc2n1O [4a-7, 1,4-dihydroxy-3-phenyl-6-(4-(trifluoromethyl)phenyl)-1,8-naphthyridin-2(1H)-one] | 600 ± 100 | – | –
3 | CCc1c(O)c2cc(-c3ccc(OC)c(F)c3)cnc2n(O)c1=O [4b-10, 3-ethyl-6-(3-fluoro-4-methoxyphenyl)-1,4-dihydroxy-1,8-naphthyridin-2(1H)-one] | 5000 ± 1000 | – | –
4 | O=c1c(-c2ccccc2)c(O)c2cc(-c3ccc4c(c3)OCO4)cnc2n1O [4a-19, 6-(benzo[d][1,3]dioxol-5-yl)-1,4-dihydroxy-3-phenyl-1,8-naphthyridin-2(1H)-one] | 1100 ± 100 | – | –
5 | CCc1c(O)c2cc(-c3cc(OC)ccc3OC)cnc2n(O)c1=O [4b-9, 6-(2,5-dimethoxyphenyl)-3-ethyl-1,4-dihydroxy-1,8-naphthyridin-2(1H)-one] | 1500 ± 100 | – | –
6 | O=c1c(-c2ccccc2)cc2cc(-c3cccc(-c4ccccc4)c3)cnc2n1O [6-1, 6-([1,1’-biphenyl]-3-yl)-1-hydroxy-3-phenyl-1,8-naphthyridin-2(1H)-one] | > 50000 | – | –
7 | O=c1c(-c2ccccc2)c(O)c2cc(-c3ccc(C(F)(F)F)cc3C(F)(F)F)cnc2n1O [4a-23, 6-(2,4-bis(trifluoromethyl)phenyl)-1,4-dihydroxy-3-phenyl-1,8-naphthyridin-2(1H)-one] | 2700 ± 400 | – | –
8 | O=c1c(-c2ccccc2)c(O)c2cc(-c3ccco3)cnc2n1O [4a-27, 6-(furan-2-yl)-1,4-dihydroxy-3-phenyl-1,8-naphthyridin-2(1H)-one] | 4000 ± 200 | – | –
9 | CSc1cccc(-c2cnc3c(c2)cc(-c2ccccc2)c(=O)n3O)c1 [6-2, 1-hydroxy-6-(3-(methylthio)phenyl)-3-phenyl-1,8-naphthyridin-2(1H)-one] | > 50000 | – | –
10 | O=c1cc(O)c2cc(-c3ccsc3)cnc2n1O [4c-11, 1,4-dihydroxy-6-(thiophen-3-yl)-1,8-naphthyridin-2(1H)-one] | – | direct quenching of fluorophore | –
11 | O=c1cc(O)c2cc(-c3cccc(-c4ccccc4)c3)cnc2n1O [4c-1, 6-([1,1’-biphenyl]-3-yl)-1,4-dihydroxy-1,8-naphthyridin-2(1H)-one] | 120 ± 10 | – | –
12 | CSc1ccc(-c2ccnc3c2c(O)cc(=O)n3O)cc1 [5-4, 1,4-dihydroxy-5-(4-(methylthio)phenyl)-1,8-naphthyridin-2(1H)-one] | 120 ± 10 | – | –
13 | 3-(5,8-dihydroxy-7-oxo-6-phenyl-7,8-dihydro-1,8-naphthyridin-3-yl) benzamide [4a-12] | – | fluorescence quenching | –
14 | COc1ccc2cc(-c3cnc4c(c3)c(O)cc(=O)n4O)ccc2c1 [4c-4, 1,4-dihydroxy-6-(6-methoxynaphthalen-2-yl)-1,8-naphthyridin-2(1H)-one] | 240 ± 30 | – | –
15 | Cc1ccc(-c2cnc3c(c2)c(O)cc(=O)n3O)cc1F [4c-13, 6-(3-fluoro-4-methylphenyl)-1,4-dihydroxy-1,8-naphthyridin-2(1H)-one] | – | direct quenching of fluorophore | –
16 | NS(=O)(=O)c1ccc(-c2cnc3c(c2)c(O)c(-c2ccccc2)c(=O)n3O)cc1 [4a-21, 4-(5,8-dihydroxy-7-oxo-6-phenyl-7,8-dihydro-1,8-naphthyridin-3-yl)benzenesulfonamide] | 1500 ± 100 | – | –
17 | CCc1c(O)c2cc(-c3ccc(C(F)(F)F)cc3)cnc2n(O)c1=O [4b-7, 3-ethyl-1,4-dihydroxy-6-(4-(trifluoromethyl)phenyl)-1,8-naphthyridin-2(1H)-one] | 2500 ± 100 | – | –
18 | O=c1c(-c2ccccc2)c(O)c2cc(-c3c(F)cc(F)cc3F)cnc2n1O [4a-24, 1,4-dihydroxy-3-phenyl-6-(2,4,6-trifluorophenyl)-1,8-naphthyridin-2(1H)-one] | – | fluorescence quenching | –
19 | O=c1c(-c2ccccc2)c(O)c2cc(-c3ccccc3F)cnc2n1O [4a-6, 6-(2-fluorophenyl)-1,4-dihydroxy-3-phenyl-1,8-naphthyridin-2(1H)-one] | 1100 ± 100 | – | –
20 | COc1ccc(-c2cnc3c(c2)c(O)cc(=O)n3O)cc1F [4c-10, 6-(3-fluoro-4-methoxyphenyl)-1,4-dihydroxy-1,8-naphthyridin-2(1H)-one] | 2500 ± 500 | – | –
21 | CCc1c(O)c2cc(-c3ccc4cc(OC)ccc4c3)cnc2n(O)c1=O [4b-4, 3-ethyl-1,4-dihydroxy-6-(6-methoxynaphthalen-2-yl)-1,8-naphthyridin-2(1H)-one] | 1600 ± 300 | – | –
22 | O=c1c(-c2ccccc2)c(O)c2cc(-c3cncnc3)cnc2n1O [4a-26, 1,4-dihydroxy-3-phenyl-6-(pyrimidin-5-yl)-1,8-naphthyridin-2(1H)-one] | 15000 ± 1000 | – | –
23 | COc1ccc(OC)c(-c2cnc3c(c2)c(O)c(-c2ccccc2)c(=O)n3O)c1 [4a-9, 6-(2,5-dimethoxyphenyl)-1,4-dihydroxy-3-phenyl-1,8-naphthyridin-2(1H)-one] | 1400 ± 100 | – | –
24 | COc1ccc2cc(-c3cnc4c(c3)c(O)c(-c3ccccc3)c(=O)n4O)ccc2c1 [4a-4, 1,4-dihydroxy-6-(6-methoxynaphthalen-2-yl)-3-phenyl-1,8-naphthyridin-2(1H)-one] | 970 ± 30 | – | –

Row | Molecule | IC50 [nM] | fluorescence quenching in the FRET assay | Mpr inhibition
25 | O=c1c(-c2ccccc2)c(O)c2cc(-c3ccc(F)cc3F)cnc2n1O [4a-22, 6-(2,4-difluorophenyl)-1,4-dihydroxy-3-phenyl-1,8-naphthyridin-2(1H)-one] | – | fluorescence quenching | –
26 | Cc1ccc(-c2cnc3c(c2)c(O)c(-c2ccccc2)c(=O)n3O)cc1 [4a-16, 1,4-dihydroxy-3-phenyl-6-(p-tolyl)-1,8-naphthyridin-2(1H)-one] | 1900 ± 400 | – | –
27 | CCc1c(O)c2cc(-c3ccccc3)cnc2n(O)c1=O [4b-5, 3-ethyl-1,4-dihydroxy-6-phenyl-1,8-naphthyridin-2(1H)-one] | 5300 ± 200 | – | –
28 | O=c1c(-c2ccccc2)c(O)c2cccnc2n1O [4a-31, 1,4-dihydroxy-3-phenyl-1,8-naphthyridin-2(1H)-one] | 17000 ± 1000 | – | –
29 | O=c1c(-c2ccccc2)c(O)c2cc(C3CC3)cnc2n1O [4a-30, 6-cyclopropyl-1,4-dihydroxy-3-phenyl-1,8-naphthyridin-2(1H)-one] | 8000 ± 1000 | – | –
30 | O=c1c(-c2ccccc2)c(O)c2cc(-c3ccc(-c4ccccc4)cc3)cnc2n1O [4a-2, 6-([1,1’-biphenyl]-4-yl)-1,4-dihydroxy-3-phenyl-1,8-naphthyridin-2(1H)-one] | 250 ± 10 | – | –
31 | CSc1cccc(-c2cnc3c(c2)c(O)c(-c2ccccc2)c(=O)n3O)c1 [4a-17, 1,4-dihydroxy-6-(3-(methylthio)phenyl)-3-phenyl-1,8-naphthyridin-2(1H)-one] | 600 ± 100 | – | –
32 | O=c1cc(O)c2cc(-c3ccccc3F)cnc2n1O [4c-6, 6-(2-fluorophenyl)-1,4-dihydroxy-1,8-naphthyridin-2(1H)-one] | 1000 ± 100 | – | –
33 | N#Cc1ccc(-c2cnc3c(c2)c(O)c(-c2ccccc2)c(=O)n3O)cc1 [4a-20, 4-(5,8-dihydroxy-7-oxo-6-phenyl-7,8-dihydro-1,8-naphthyridin-3-yl) benzonitrile] | 1900 ± 200 | – | –
34 | O=c1cc(O)c2cc(-c3ccccc3)cnc2n1O [4c-5, 1,4-dihydroxy-6-phenyl-1,8-naphthyridin-2(1H)-one] | 1800 ± 10 | – | –
35 | CCc1c(O)c2cc(-c3ccc(SC)cc3)cnc2n(O)c1=O [4b-8, 3-ethyl-1,4-dihydroxy-6-(4-(methylthio)phenyl)-1,8-naphthyridin-2(1H)-one] | 700 ± 100 | – | –
36 | O=c1cc(O)c2cc(-c3ccc(-c4ccccc4)cc3)cnc2n1O [4c-2, 6-([1,1’-biphenyl]-4-yl)-1,4-dihydroxy-1,8-naphthyridin-2(1H)-one] | – | direct quenching of fluorophore | –
37 | CC(=O)c1ccc(-c2cnc3c(c2)c(O)c(-c2ccccc2)c(=O)n3O)s1 [4a-28, 6-(5-acetylthiophen-2-yl)-1,4-dihydroxy-3-phenyl-1,8-naphthyridin-2(1H)-one] | – | fluorescence quenching | –
38 | CCc1c(O)c2cc(-c3ccsc3)cnc2n(O)c1=O [4b-11, 3-ethyl-1,4-dihydroxy-6-(thiophen-3-yl)-1,8-naphthyridin-2(1H)-one] | 3900 ± 100 | – | –
39 | O=c1cc(O)c2cc(Br)cnc2n1O [4c-14, 6-bromo-1,4-dihydroxy-1,8-naphthyridin-2(1H)-one] | 9000 ± 1000 | – | –
40 | CSc1ccc(-c2cnc3c(c2)c(O)c(-c2ccccc2)c(=O)n3O)cc1 [4a-8, 1,4-dihydroxy-6-(4-(methylthio)phenyl)-3-phenyl-1,8-naphthyridin-2(1H)-one] | 370 ± 30 | – | –
41 | O=c1c(-c2ccccc2)c(O)c2cc(Br)cnc2n1O [4a-14, 6-bromo-1,4-dihydroxy-3-phenyl-1,8-naphthyridin-2(1H)-one] | 7600 ± 100 | – | –
42 | O=c1cc(O)c2cc(-c3ccc(Oc4ccccc4)cc3)cnc2n1O [4c-3, 1,4-dihydroxy-6-(4-phenoxyphenyl)-1,8-naphthyridin-2(1H)-one] | – | direct quenching of fluorophore | –
43 | O=c1c(-c2ccccc2)c(O)c2cc(-c3cnc4ccccc4c3)cnc2n1O [4a-29, 1,4-dihydroxy-3-phenyl-6-(quinolin-3-yl)-1,8-naphthyridin-2(1H)-one] | – | – | did not inhibit Mpr
44 | O=c1c(-c2ccccc2)c(O)c2cc(-c3cccnc3)cnc2n1O [4a-25, 1,4-dihydroxy-3-phenyl-6-(pyridin-3-yl)-1,8-naphthyridin-2(1H)-one] | 12000 ± 1000 | – | –
45 | CCc1c(O)c2cc(-c3ccccc3F)cnc2n(O)c1=O [4b-6, 3-ethyl-6-(2-fluorophenyl)-1,4-dihydroxy-1,8-naphthyridin-2(1H)-one] | 2100 ± 900 | – | –
46 | CCc1c(O)c2cc(-c3cccc(-c4ccccc4)c3)cnc2n(O)c1=O [4b-1, 6-([1,1’-biphenyl]-3-yl)-3-ethyl-1,4-dihydroxy-1,8-naphthyridin-2(1H)-one] | 800 ± 30 | – | –
47 | O=c1c(-c2ccccc2)c(O)c2cc(-c3ccsc3)cnc2n1O [4a-11, 1,4-dihydroxy-3-phenyl-6-(thiophen-3-yl)-1,8-naphthyridin-2(1H)-one] | 1300 ± 300 | – | –

Same assay, conditions: read-out: Mpr IC50

Row | Molecule | IC50 [nM]
48 | NC(=O)c1cccc(-c2cnc3c(c2)c(O)cc(=O)n3O)c1 [4c-12, 3-(5,8-dihydroxy-7-oxo-7,8-dihydro-1,8-naphthyridin-3-yl) benzamide] | 15000 ± 2000
